Earlier results on one molecule are cited in patent US5840712A, “Water soluble vitamin B12 receptor modulating agents and methods related thereto” (Receptagen Corporation, priority 1995, dated 1998).

Each structure is given as a SMILES string.

This series deals with avidin (Gallus gallus, UniProt P02701).
avidin, sequence (P02701 25-152): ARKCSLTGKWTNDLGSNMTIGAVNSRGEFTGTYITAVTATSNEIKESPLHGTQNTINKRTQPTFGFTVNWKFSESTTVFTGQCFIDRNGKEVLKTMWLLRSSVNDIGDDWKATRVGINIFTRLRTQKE

For the molecule `O=C(O)CCCC[C@@H]1SC[C@@H]2NC(=O)N[C@@H]21` [biotin], the “specific binding affinity of biotin for avidin (Ka)” value is listed as 10^15.
